Measurements taken from patent US8114886B2, “Pyridylmethylsulfone derivative” (Daiichi Sankyo Company, Limited, priority 2005, dated 2012).

What was measured:
[1] = tested on: β-amyloid protein (Aβ) secreted by E35 cells (H4 cells with APP751 gene); experiment: Screening system using E35 cells for inhibition of production/secretion of β-amyloid protein (sandwich ELISA of Aβ in culture medium); assay type: cell-based, human; conditions: Homo sapiens, 24 hours with compound, Aβ in culture supernatant by ELISA, read-out: Inhibitory Activity for Production of A(EC50)
Method: The activity of the compound inhibiting β-amyloid protein production was measured on E35 cells prepared by introducing APP751 gene, a gene of a human wild type β-amyloid protein precursor protein, to human glioma cells (H4 cells), by quantifying the amount of β-amyloid protein (Aβ) secreted to the culture medium by means of a sandwich type Enzyme-Linked Immunosorbent Assay (ELISA) method.
That is, E35 cells inoculated on a 96-well plate were cultured in an incubator at 37° C. which was maintained at equilibrium with 5% carbon dioxide, using Dulbecco's Modified Eagle's Medium containing inactivated 10% fetal bovine serum as the culture medium. After 24 hours from the inoculation, a test compound dissolved in a DMSO solution was added. The DMSO solution of the test compound was prepared at a concentration of 2000 times of the final concentration, such that the DMSO concentration in the culture medium would be 0.05%. After culturing for another 24 hours, the culture supernatant was recovered, and this was added to a 96-well plate for ELISA onto which a monoclonal antibody against Aβ, 25-1, was solid-phased. The plate was incubated at 4° C. for 16 to 20 hours. The plate was washed with phosphate buffer solution (pH 7.4), and then a biotinylated monoclonal antibody against Aβ, MA32-40, was added thereto. The plate was left to stand at 4° C. for 2 hours. The plate was washed again with phosphate buffer solution, and then alkaline phosphatase-conjugated streptavidin was added to conjugate streptavidin to biotin. Subsequently, the plate was washed with phosphate buffer solution. To this, Blue Phos (Kirkegaard & Perry Laboratories, Inc.) was added. After incubating the plate for an appropriate time, the reaction was terminated with an acid, and the absorbance for each well was measured. The amount of Aβ contained in the culture supernatant was determined from a calibration curve which was produced separately, and the amount was compared with that of control cells to which the compound was not added. Thus, the concentration at which 50% of the Aβ production is inhibited (EC50 value) was calculated. In addition, the 25-1 antibody and MA32-40 antibody used in ELISA were mouse monoclonal antibodies derived from the hybridoma cell clone lines, which were each produced and selected according to a standard method using Aβ25-35 and Aβ1-8 as antigens, respectively, and which specifically recognize their respective antigens. […]
The scores indicate ++++ for the case where EC50 was 5 nM or less; +++ for the case where EC50 was 5 to 50 nM; ++ for the case where EC50 was 50 to 500 nM; and + for the case where EC50 was 500 nM to 5 μM.

Row | SMILES | melting point [°C] | EC50 [1] [nM]
1 | Cc1cc(C(=O)NCO)ncc1C(c1c(F)ccc(F)c1F)S(=O)(=O)c1ccc(OC(F)(F)F)cc1 (centres unmarked) [Example 124, N-(hydroxymethyl)-4-methyl-5-[[[4-(trifluoromethoxy)phenyl]sulfonyl](2,3,6-trifluorophenyl)methyl]pyridine-2-carboxamide] | 140 to 141 | 5 to 50
2 | Cc1cc(C(=O)NCCO)ncc1C(c1c(F)ccc(F)c1F)S(=O)(=O)c1ccc(F)cc1 (centres unmarked) [Example 94, 5-[[(4-Fluorophenyl)sulfonyl](2,3,6-trifluorophenyl)methyl]-N-(2-hydroxyethyl)-4-methylpyridine-2-carboxamide] | 164 to 165 | ≤ 5
3 | CCNC(=O)c1cc(C)c(C(c2cc(F)ccc2F)S(=O)(=O)c2ccc(F)cc2)cn1 (centres unmarked) [Example 16, 5-[(2,5-Difluorophenyl)[(4-fluorophenyl)sulfonyl]methyl]-N-ethyl-4-methylpyridine-2-carboxamide] | 191 to 193 | ≤ 5
4 | Cc1cc(C(=O)N(C)C)ncc1C(c1cc(F)ccc1F)S(=O)(=O)c1ccc(Cl)cc1 (centres unmarked) [Example 5, 5-[[(4-Chlorophenyl)sulfonyl](2,5-difluorophenyl)methyl]-N,N,4-trimethylpyridine-2-carboxamide] | 207 to 208 | 50 to 500
5 | CCN(C)C(=O)c1cc(C)c(C(c2cc(F)ccc2F)S(=O)(=O)c2ccc(F)cc2)cn1 (centres unmarked) [Example 18, 5-[(2,5-Difluorophenyl)[(4-fluorophenyl)sulfonyl]methyl]-N-ethyl-N,4-dimethylpyridine-2-carboxamide] | 165 to 167 | 50 to 500
6 | Cc1cc(C(=O)NCCO)ncc1C(c1cc(F)ccc1F)S(=O)(=O)c1ccc(F)cc1 (centres unmarked) [Example 17, 5-[(2,5-Difluorophenyl)[(4-fluorophenyl)sulfonyl]methyl]-N-(2-hydroxyethyl)-4-methylpyridine-2-carboxamide] | 153 to 154 | ≤ 5
7 | CONC(=O)c1cc(C)c(C(c2cc(F)ccc2F)S(=O)(=O)c2ccc(F)cc2)cn1 (centres unmarked) [Example 78, 5-[(2,5-Difluorophenyl)[(4-fluorophenyl)sulfonyl]methyl]-N-methoxy-4-methylpyridine-2-carboxamide] | 231 to 234 | 5 to 50
8 | Cc1cc(C(=O)N2CCOCC2)ncc1C(c1cc(F)ccc1F)S(=O)(=O)c1ccc(F)cc1 (centres unmarked) [Example 77, 4-[[5-[(2,5-Difluorophenyl)[(4-fluorophenyl)sulfonyl]methyl]-4-methylpyridin-2-yl]carbonyl]morpholine] | 165 to 167 | 500 to 5000
9 | Cc1cc(C(=O)N(C)CCO)ncc1C(c1cc(F)ccc1F)S(=O)(=O)c1ccc(F)cc1 (centres unmarked) [Example 19, 5-[(2,5-Difluorophenyl)[(4-fluorophenyl)sulfonyl]methyl]-N-(2-hydroxyethyl)-N,4-dimethylpyridine-2-carboxamide] | 123 to 125 | 500 to 5000
10 | Cc1cc(C(N)=O)ncc1C(c1c(F)ccc(F)c1F)S(=O)(=O)c1ccc(OC(F)(F)F)cc1 (centres unmarked) [Example 123, 4-Methyl-5-[[[4-(trifluoromethoxy)phenyl]sulfonyl](2,3,6-trifluorophenyl)methyl]pyridine-2-carboxamide] | 219 to 220 | ≤ 5
11 | Cc1cc(C(=O)NC(CO)CO)ncc1C(c1cc(F)ccc1F)S(=O)(=O)c1ccc(F)cc1 (centres unmarked) [Example 75, 5-[(2,5-Difluorophenyl)[(4-fluorophenyl)sulfonyl]methyl]-N-[2-hydroxy-1-(hydroxymethyl)ethyl]-4-methylpyridine-2-carboxamide] | 150 to 152 | ≤ 5
12 | Cc1cc(C(N)=O)ncc1C(c1c(F)ccc(F)c1F)S(=O)(=O)c1ccc(C(F)(F)F)nc1 (centres unmarked) [Example 117, 4-Methyl-5-[[[6-(trifluoromethyl)pyridin-3-yl]sulfonyl](2,3,6-trifluorophenyl)methyl]pyridine-2-carboxamide] | 237 to 238 | ≤ 5
13 | Cc1cc(C(=O)N(C)C)ncc1C(c1cc(F)ccc1F)S(=O)(=O)c1ccc(F)cc1 (centres unmarked) [Example 14, 5-[(2,5-Difluorophenyl)[(4-fluorophenyl)sulfonyl]methyl]-N,N,4-trimethylpyridine-2-carboxamide] | 176 to 177 | 50 to 500
14 | COc1ccc(S(=O)(=O)C(c2cnc(C(=O)NCCO)cc2C)c2cc(F)ccc2F)cc1 (centres unmarked) [Example 43, 5-[(2,5-Difluorophenyl)[(4-methoxyphenyl)sulfonyl]methyl]-N-(2-hydroxyethyl)-4-methylpyridine-2-carboxamide] | 134 to 135 | 5 to 50
15 | Cc1cc(C(=O)NCCC[S+](C)[O-])ncc1C(c1cc(F)ccc1F)S(=O)(=O)c1ccc(F)cc1 (centres unmarked) [Example 73, 5-[(2,5-Difluorophenyl)[(4-fluorophenyl)sulfonyl]methyl]-4-methyl-N-[3-(methylsulfinyl)propyl]pyridine-2-carboxamide] | 170 to 173 | ≤ 5
16 | COc1ccc(S(=O)(=O)C(c2cnc(C(=O)NCCO)cc2C)c2cc(F)ccc2F)cc1F (centres unmarked) [Example 47, 5-[(2,5-Difluorophenyl)[(3-fluoro-4-methoxyphenyl)sulfonyl]methyl]-N-(2-hydroxyethyl)-4-methylpyridine-2-carboxamide] | 137 to 138 | 5 to 50
17 | Cc1cc(C(=O)N2CCC(O)CC2)ncc1C(c1cc(F)ccc1F)S(=O)(=O)c1ccc(F)cc1 (centres unmarked) [Example 76, 1-[[5-[(2,5-Difluorophenyl)[(4-fluorophenyl)sulfonyl]methyl]-4-methylpyridin-2-yl]carbonyl]piperidin-4-ol] | 171 to 173 | 500 to 5000
18 | CNC(=O)c1cc(C)c(C(c2cc(F)ccc2F)S(=O)(=O)c2ccc(F)cc2)cn1 (centres unmarked) [Example 13, 5-[(2,5-difluorophenyl)[(4-fluorophenyl)sulfonyl]methyl]-N, 4-dimethylpyridine-2-carboxamide] | 201 to 202 | ≤ 5
19 | CON(C)C(=O)c1cc(C)c(C(c2cc(F)ccc2F)S(=O)(=O)c2ccc(F)cc2)cn1 (centres unmarked) [Example 79, 5-[(2,5-Difluorophenyl) [(4-fluorophenyl)sulfonyl]methyl]-N-methoxy-N,4-dimethylpyridine-2-carboxamide] | 156 to 158 | 50 to 500
20 | Cc1cc(C(=O)NCO)ncc1C(c1c(F)ccc(F)c1F)S(=O)(=O)c1ccc(Cl)cc1 (centres unmarked) [Example 120, 5-[[(4-Chlorophenyl)sulfonyl](2,3,6-trifluorophenyl)methyl]-N-(hydroxymethyl)-4-methylpyridine-2-carboxamide] | 177 to 178 | ≤ 5
21 | Cc1cc(C(=O)NCCCS(C)(=O)=O)ncc1C(c1cc(F)ccc1F)S(=O)(=O)c1ccc(F)cc1 (centres unmarked) [Example 74, 5-[(2,5-Difluorophenyl)[(4-fluorophenyl)sulfonyl]methyl]-4-methyl-N-[3-(methylsulfonyl)propyl]pyridine-2-carboxamide] | 182 to 185 | ≤ 5
22 | CNC(=O)c1cc(C)c(C(c2cc(F)ccc2F)S(=O)(=O)c2ccc(Cl)cc2)cn1 (centres unmarked) [Example 4, 5-[[(4-Chlorophenyl)sulfonyl](2,5-difluorophenyl)methyl]-N,4-dimethylpyridine-2-carboxamide] | 200 to 201 | ≤ 5
